Assay results from PMC8044163, “Vitamin D and lumisterol derivatives can act on liver X receptors (LXRs)” (Scientific Reports, 2021).

Assays:
genes downstream of LXR = assay: qPCR of genes downstream of LXR in murine dermal fibroblasts; format: cell-based, mouse; conditions: 10^–7 M, 24 h
Procedure: All animal studies followed guidelines outlined by the NIH Guide for the Care and Use of Laboratory Animals and protocols were approved by the Institutional Animal Care and Use Committee at the NIEHS or the UAB. The study was carried out in compliance with the ARRIVE guidelines (http://www.nc3rs.org.uk/page.asp?id=1357). Skin samples from newborn C57BL/6 mice were collected at the NIEHS. Dermal fibroblasts were isolated from the skin of newborn mice, 1–2 day old. Briefly, we followed the protocols described previously. The skin was washed in PBS, cut into smaller pieces and incubated in 2.4 U/ml of dispase II (Roche) overnight at 4 °C. The dermis was separated from the epidermis and incubated in 0.1% collagenase (Roche) at 4 °C overnight. Next day, it was cut into smaller pieces and incubated for 1 h in 0.25% Trypsin (CellGrow) at 37 °C. Single cell suspension was prepared by pipetting and draining through a cell strainer. After centrifugation, cell pellets were suspended in DMEM medium containing 10% charcoal-stripped fetal bovine serum (cFBS), mouse fibroblasts growth factor (FGF) and 1% antibiotic, and inoculated into tissue culture dishes (Midwest Scientific, TPP). Cells, in early passages, from different mice were pooled together to provide representative samples for experiments. Fibroblasts were cultured in Petri dishes (10 cm in diameter) in DMEM and 10% cFBS and triplicate semi-confluent cultures were treated as described.
RNA isolated from either fibroblasts, HaCaT cells or brain was submitted for cDNA synthesis (High Capacity cDNA Reverse Transcription Kit with RNase Inhibitor, Applied Biosystems) following the manufacturers’ protocols. RT-PCR was carried out using Cyber green, in triplicates; as previously described. Approximately, 750 ng of cDNA was used for PCR reactions. GAPDH and CIC-B were used as internal controls. Primer sequences are listed in Supplementary Table 27. Data were analyzed using GraphPad Prism statistical software one way ANOVA or t-test, where appropriate; *p < 0.05; **p < 0.01; ***p < 0.001.

LBD of LXRα = molecular target: T1, LBD of LXRα (Homo sapiens, UniProt Q13133); assay: LanthaScreen TR-FRET LXRα coactivator assay (LXR binding assay); format: biochemical; conditions: average values; for EC50: agonist, read-out: LXRα EC50; for IC50: inverse agonist
T1 construct: after addition of LXRα/β-LBD to the derivatives; purchased Thermo Fisher Scientific
T1 sequence (Q13133 209-447 limits assumed): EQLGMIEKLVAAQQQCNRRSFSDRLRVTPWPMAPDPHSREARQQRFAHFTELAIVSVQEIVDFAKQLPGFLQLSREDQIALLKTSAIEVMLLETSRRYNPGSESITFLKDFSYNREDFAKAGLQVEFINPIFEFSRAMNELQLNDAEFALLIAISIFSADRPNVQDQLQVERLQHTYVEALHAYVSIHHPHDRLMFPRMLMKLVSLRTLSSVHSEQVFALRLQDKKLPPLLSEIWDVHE
Procedure: (§1) Binding assays of graded concentrations of vitamin D3 or lumisterol hydroxyderivatives to LXRα/β were performed using the LanthaScreen TR-FRET LXRα/β Coactivator kit (Thermo Fisher Scientific, Inc., Waltham, MA) following the manufacture’s protocol. Briefly, after addition of LXRα/β-LBD to the derivatives, a mixture of peptide (Fluorescein-TRAP220/DRIP-2 for LXRα or Fluorescein-D22 for LXRβ) and antibody (Tb-anti-GST) was added to the reaction followed by incubation in room temperature for 2 h. TR-FRET ratio was calculated by dividing the emission at 520 nm by the emission at 495 nm using Synergy neo2 (BioTek, Winooski, VT).

LBD of LXRβ = molecular target: T2, LBD of LXRβ (Homo sapiens, UniProt P55055); assay: LanthaScreen TR-FRET LXRβ coactivator assay (LXR binding assay); format: biochemical; conditions: agonist; average values; read-out: LXRβ EC50
T2 construct: purchased Thermo Fisher Scientific
T2 sequence (P55055 222-460 limits assumed): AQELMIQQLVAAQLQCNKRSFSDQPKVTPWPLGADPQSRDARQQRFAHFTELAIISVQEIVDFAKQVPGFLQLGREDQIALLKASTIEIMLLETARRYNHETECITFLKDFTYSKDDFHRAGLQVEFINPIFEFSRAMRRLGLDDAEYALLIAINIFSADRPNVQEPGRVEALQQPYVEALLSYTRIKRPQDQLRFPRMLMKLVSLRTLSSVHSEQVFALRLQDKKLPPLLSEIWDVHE
Procedure: as §1

LXRα/β = assay: Ligand induced translocation of LXRα/β to the nucleus, imaging flow cytometry in HaCaT; format: cell-based, human; conditions: 10^–7 M, 12 h
Procedure: HaCaT cells were plated in DMEM plus 5% cFBS either on a sterile glass cover slip placed in a well of a 6-well plates for immunofluorescence (IF) assays or TPP Petri dishes for image-stream flow cytometry, and treated with 10^–7 M D3- or L3-hydroxyderivatives or 0.1% ethanol (vehicle) as a negative control was added to each well, and the cells were incubated for 12 or 24 h at 37 °C with 5% CO2. For IF the cells were fixed in 4% paraformaldehyde for 15 min, incubated in 0.5% Triton X-100 in phosphate-buffered saline (PBS) for 5 min, and washed 3 times in PBS. After blocking with 2% bovine serum albumin (BSA) in PBS for 1 h at room temperature, the cells were treated with an anti-LXRα antibody (Novus Biologicals, LLC, Centennial, CO) at 1:200 in PBS supplemented with 2% BSA overnight in 4 °C. After washing the slides were incubated with a mouse anti-rabbit IgG-FITC (Santa Cruz Biotechnology, Inc, Dallas, TX) at 1:200 dilution for 1.5 h at 37 °C. After washing the slides were mounted using propidium iodide (PI) (Vector Labs, Burlingame, California) as a nuclear counterstain. The slides were examined using a KEYENCE America BZ-X710 Fluorescence Microscope (Itasca, IL). The images were subsequently analyzed using the JACoP plugin for colocalization analysis with ImageJ[74]. Five separate high-power field (40×) images were converted to grayscale and analyzed for each condition. Manders’ coefficient (M1), calculated using a preset threshold, was used to quantify the degree of colocalization between PI and LXRα with 0 representing no colocalization, and 1 representing perfect colocalization.
For Image Stream II (Amnis, Seattle, WA, USA) cytometer analyses, HaCaT cells were detached and processed as previously described. The cells were fixed with paraformaldehyde and permeabilized in methanol containing buffer[78],[79] and Hoechst stain (r37165, ThermoFisher) and rabbit antibodies to LXRα/β (sc 377260, AF 647, SantaCruz) or VDR (sc-13133, AF 488, SantaCruz) as described previously. Data were analyzed using IDEAS software (Amnis, Seattle, WA, USA).

`CC(C)CCC[C@](C)(O)[C@H]1CC[C@H]2[C@@H]3CC=C4C[C@@H](O)CC[C@]4(C)[C@H]3CC[C@@]21C` [20(OH)C, 20-hydroxycholesterol, reference compound] was tested, and the Abcg8 expression (genes downstream of LXR) was “inhibited”, the “ApoE (apolipoprotein E) expression” value (genes downstream of LXR) was “inhibited” and the Cyp7a1 expression (genes downstream of LXR) was “inhibited”.
With `C=C1CC[C@H](O)C/C1=C/C=C1\CCC[C@@]2(C)[C@H]1CC[C@@H]2[C@@](C)(O)CCCC(C)C` [20(OH)D3] the EC50 (LBD of LXRα) was 15 nM, the EC50 (LBD of LXRβ) was 2600 nM and the Cyp7a1 expression (genes downstream of LXR) was “stimulated”. For the same compound, the “Fas (fatty acid synthase) expression” value (genes downstream of LXR) was “stimulated” and the “translocation of LXRα/β from the cytoplasm to the nucleus” value (from here on “translocation of LXRα/β”) (LXRα/β) was “increased translocation”.
`C=C1CCC(O)CC1=CC=C1CCCC2(C)C1CCC2C(C)(O)CC(O)CC(C)C` (stereo not shown) [20,23(OH)2D3] was tested, and the EC50 (LBD of LXRα) was 1100 nM, the EC50 (LBD of LXRβ) was 26000 nM and the Abcg8 expression (genes downstream of LXR) was “induced”. The “ApoE (apolipoprotein E) expression” value (genes downstream of LXR) was “enhanced”.
`C=C1C(=CC=C2CCCC3(C)C2CCC3C(C)(O)CC(O)CC(C)C)CC(O)CC1O` (stereo not shown) [1,20,23(OH)3D3] was tested, and the IC50 (LBD of LXRα) was 2100 nM, the EC50 (LBD of LXRβ) was 1600 nM and the Cyp7a1 expression (genes downstream of LXR) was “inhibited”. The “Fas (fatty acid synthase) expression” value (genes downstream of LXR) was “stimulated” and the “translocation of LXRα/β” value (LXRα/β) was “increased translocation”.
With `C=C1/C(=C\C=C2/CCC[C@]3(C)[C@@H]([C@H](C)CCCC(C)(C)O)CC[C@@H]23)C[C@@H](O)C[C@@H]1O` [1,25(OH)2D3, reference compound] the IC50 (LBD of LXRα) was 1100 nM, the EC50 (LBD of LXRβ) was 14000 nM and the Cyp7a1 expression (genes downstream of LXR) was “stimulated”. The “Fas (fatty acid synthase) expression” value (genes downstream of LXR) was “stimulated” and the “translocation of LXRα/β” value (LXRα/β) was “increased translocation”.
